Results from patent US4059694A, “Cardiotonic agent” (The University of Hawaii, priority 1976, dated 1977).
Like-named read-outs stand apart in the source and are kept apart here.

Columns and labels:
[1] = tested on: isolated guinea pig atria; assay: Positive inotropic effect on isolated guinea pig atria; type: cell-based
Protocol: (§1) Anthopleurin-A can be further characterized by its pharmacological characteristics. […] The LD50 in mice (i.p.) is about 0.2-0.3 mg./kg.

[2] = tested on: catechol-O-methyltransferase; assay: Enzyme inhibition, catechol-O-methyltransferase; type: biochemical; details: 3 × 10^-8 M
Isoelectric focusing = type: physicochemical; details: doubly purified material
Source text: For the purpose of obtaining electrophoretic and amino acid analysis the anthopleurin-A obtained in Example 1 was rechromatographed on CM Sephadex C-25, Sephadex G-50 and G-10 according to the process set forth in Example 1, Steps c, d and e, respectively. The doubly purified material was subject to electrophoretic analysis using commercially available pre-cast 12% acrylamide gels and matched buffer systems obtained from Bio.Rad Laboratories, 32nd and Griffin, Richmond, California.
Isoelectric focusing gives the isoelectric point at a pH = 8.2. Disc gel electrophoresis with 12% polyacrylamide gel at pH 3.6 gave an Rf value of 0.46 versus methyl green tracking dye. […] Sodium dodecyl sulfate (SDS) disc gel electrophoresis using a 10% gel indicated a m.w. of about 4,700 after incubation with dithioerythritol, using RNase A and pancreatic trypsin inhibitor (PTI) for comparison. The molecular weight is so low that these values are only approximate. AP-A was determined to be a peptide on the basis of positive ninhydrin spots obtained when a hydrolysate of AP-A was chromatographed.

[3] = Dependence of drug action and toxicity on external Ca++ and K+, compared with ouabain
atria = assay: Inotropic effect on atria under stressful conditions; type: cell-based; details: severe temperature stress, anoxia and low Ca^++ concentrations
in situ heart [4] = assay: Cardiotonic effect in the in situ heart, dog; type: in vivo
Source text: (§2) This cardiac stimulation is observed in animals by measuring the in vitro contractile effect on isolated heart muscle and in vivo in anesthetized dogs fitted with a cardiac strain gauge.

isolated heart [5] = assay: Cardiotonic effect in the isolated heart, dog; type: cell-based
Source text: as §2

in situ heart [6] = assay: Cardiotonic effect in the in situ heart, cat; type: in vivo
isolated heart [7] = assay: Cardiotonic effect in the isolated heart, rabbit; type: cell-based
Source text: as §2

blood pressure = assay: Effect on blood pressure; details: in vivo
isolated heart [8] = assay: Cardiotonic effect in the isolated heart, guinea pig; type: cell-based
Source text: as §2

isolated vascular muscle = assay: Mechanical effect on the isolated vascular muscle; type: cell-based
mice = assay: Acute toxicity (LD50) in mice, i.p.; type: in vivo
Protocol: as §1

monoamine oxidase = assay: Enzyme inhibition, monoamine oxidase; type: biochemical; details: 3 × 10^-8 M
Na, K-ATPase = assay: Enzyme inhibition, Na, K-ATPase; type: biochemical; details: 3 × 10^-8 M
[9] = tested on: cyclic 3', 5'-nucleotide phosphodiesterase; assay: Enzyme inhibition, cyclic 3', 5'-nucleotide phosphodiesterase; type: biochemical; details: 3 × 10^-8 M
heart rate = assay: Chronotropic effect (heart rate)
[10] = Stability of anthopleurin-A on storage and in solution; type: physicochemical
isolated heart [11] = assay: Cardiotonic effect in the isolated heart, cat; type: cell-based
Source text: as §2

Solubility in water = type: physicochemical; details: deionized water
isolated heart [12] = assay: Cardiotonic effect in the isolated heart, rat; type: cell-based
Source text: as §2

## anthopleurin-A
[1]; isolated guinea pig atria
  ED50, positive inotropic effect: 1.1 nM
[1]; times as potent as ouabain
  potency relative to ouabain in positive inotropic effect: 200-1000 x
[2]
  inhibition of catechol-O-methyltransferase: none of the following enzymes is inhibited
Isoelectric focusing
  isoelectric point: 8.2 pH
[3]
  effect of lowered external K^+ on drug toxicity: does not alter drug toxicity
  sensitivity to Ca^++ concentration: not nearly as sensitive
atria
  inotropic effect on atria under stress: positive inotropic effect
In situ heart [4]
  cardiotonic effect in the in situ heart: effective cardiotonic agent
Isolated heart [5]
  cardiotonic effect in the isolated heart: effective cardiotonic agent
In situ heart [6]
  cardiotonic effect in the in situ heart: effective cardiotonic agent
Isolated heart [7]
  cardiotonic effect in the isolated heart: effective cardiotonic agent
Blood pressure
  effect on blood pressure: negligible effect
Blood pressure; listed as AP-A
  effect on blood pressure: does not have any demonstrable effect
Isolated heart [8]
  cardiotonic effect in the isolated heart: effective cardiotonic agent
Isolated vascular muscle
  mechanical effect on the isolated vascular muscle / vascular smooth muscle: no demonostrable mechanical effect
Isolated vascular muscle; listed as AP-A
  mechanical effect on the isolated vascular muscle / vascular smooth muscle: does not have any demonstrable effect
mice
  LD50: 0.2 to 0.3 mg/kg
Monoamine oxidase
  inhibition of monoamine oxidase: none of the following enzymes is inhibited
Na, K-ATPase
  inhibition of Na, K-ATPase: none of the following enzymes is inhibited
[9]
  inhibition of cyclic 3', 5'-nucleotide phosphodiesterase: none of the following enzymes is inhibited
Heart rate
  chronotropic effect / effect on heart rate: does not show any chronotropic effect
Heart rate; listed as AP-A
  chronotropic effect / effect on heart rate: does not have any demonstrable effect
[10]; as fraction G, 20.5° C., 10^-7 M solutions, pH 4.55-7.80
  time stable in solution: at least 24 hours
[10]; as fraction G, pH above 11
  loss of cardiotonic activity: about 90%
[10]; kept at -20° C. for a year as lyophilized fraction C or lyophilized fraction G
  storage stability: no signs of deterioration
[10]; neutral and lower pH values
  stability versus pH: relatively stable
Isolated heart [11]
  cardiotonic effect in the isolated heart: effective cardiotonic agent
Solubility in water
  solubility: very soluble
Isolated heart [12]
  cardiotonic effect in the isolated heart: effective cardiotonic agent
